Measurements: patent US12441730B2, “PRMT5 inhibitors” (Merck Sharp & Dohme LLC, priority 2019, dated 2025)
Read-outs that look alike come from different tables or passages of the source.

Columns and labels:
[1] = biological target: T1, Full-length (FL)-PRMT5-MEP50 enzyme complex (Homo sapiens, UniProt O14744); assay: PRMT5-MEP50 Enzyme Methylation Assay (Version A); assay type: biochemical
T1 construct: Full-length (FL)-PRMT5-MEP50 enzyme complex (recombinant proteins from baculovirus-transfected Sf21 cells: FL-PRMT5; MW=73837 kDa and FL-MEP50; MW=38614); made in house; host or cells: baculovirus-transfected Sf21 cells
Procedure, shortened: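 Compound was pre-incubated with enzyme for 60 min, then reacted 150 min at 37° C. at final 1.0 nM PRMT5-MEP50, 15 μM SAM and 75 nM biotinylated H4R3(Me1) peptide, in 50 mM Bicine pH 8.0 with 1% DMSO. SAMDI mass-spectrometric readout of Me1→Me2 conversion. EC50 from 4- or 7-parameter regression.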

[2] = system: symmetric dimethylation of arginine (SDMA) of PRMT5 substrates in MCF-7 cells; assay: PRMT5 Cell Target Engagement (TE) Assay; assay type: cell-based; settings: 3 days treatment, SDMA high content imaging
Procedure, shortened: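 Readout is single-cell nuclear symmetric-dimethylarginine immunofluorescence (Alexa488), normalized to DMSO-treated cells. Compounds were applied to MCF-7 cells for 3 days at 37 °C, top concentration 10000 nM in 1:3 steps over ten points; curves fitted with 4-parameter robust fit.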

[3] = second value of 7 parameter biphasic fit, read-out: Enzyme Methylation Assay Version A (EC50 2)
[4] = single EC50 = 4 parameter single site sigmoidal fit, EC50 1 = first value of 7 parameter biphasic fit, read-out: Enzyme Methylation Assay Version A (EC50 or EC50 1)

T1 sequence (O14744 whole entry): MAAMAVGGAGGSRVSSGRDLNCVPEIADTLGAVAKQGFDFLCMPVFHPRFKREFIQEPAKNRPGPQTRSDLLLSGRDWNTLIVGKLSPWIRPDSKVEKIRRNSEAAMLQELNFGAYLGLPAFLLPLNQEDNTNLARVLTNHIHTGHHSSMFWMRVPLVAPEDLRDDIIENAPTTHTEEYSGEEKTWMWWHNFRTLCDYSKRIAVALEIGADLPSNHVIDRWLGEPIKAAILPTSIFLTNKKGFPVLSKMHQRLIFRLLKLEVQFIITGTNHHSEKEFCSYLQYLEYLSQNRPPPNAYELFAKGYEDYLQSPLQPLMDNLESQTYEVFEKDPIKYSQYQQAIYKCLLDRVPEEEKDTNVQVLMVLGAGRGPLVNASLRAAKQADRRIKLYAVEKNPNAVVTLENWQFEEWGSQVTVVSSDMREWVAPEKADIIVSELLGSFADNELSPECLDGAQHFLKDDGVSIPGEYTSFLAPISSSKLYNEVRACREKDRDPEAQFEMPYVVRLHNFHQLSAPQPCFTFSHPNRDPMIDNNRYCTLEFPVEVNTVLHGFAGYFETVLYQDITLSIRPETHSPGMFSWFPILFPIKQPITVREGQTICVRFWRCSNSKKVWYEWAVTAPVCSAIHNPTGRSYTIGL
T1 sequence (Q9BQA1 whole entry partner): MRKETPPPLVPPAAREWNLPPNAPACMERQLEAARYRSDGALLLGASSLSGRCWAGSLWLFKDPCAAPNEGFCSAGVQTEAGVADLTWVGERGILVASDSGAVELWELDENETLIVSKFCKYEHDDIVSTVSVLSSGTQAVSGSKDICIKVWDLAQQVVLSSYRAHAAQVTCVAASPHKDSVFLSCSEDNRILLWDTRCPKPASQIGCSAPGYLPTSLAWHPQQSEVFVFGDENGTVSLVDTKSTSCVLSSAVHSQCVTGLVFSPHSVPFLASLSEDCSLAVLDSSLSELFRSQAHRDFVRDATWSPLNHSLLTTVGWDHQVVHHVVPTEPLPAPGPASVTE

SMILES	EC50 [1, 3] [nM]	EC50 [1, 4] [nM]	EC50 ([2]; Homo sapiens, MCF7, 72 h) [nM]	EC50 [2] [nM]
O=C(c1cn2cc(O)ccc2n1)N1CC[C@]2(Cc3ccccc3CN2)[C@H](O)C1 [Example 39, ((3R,3’R)-3′-hydroxy-1,4-dihydro-2H-spiro[isoquinoline-3,4′-piperidin]-1′-yl)(6-hydroxyimidazo[1,2-a]pyridin-2-yl)methanone]	29200	95.5	571	–
COc1nc2nc(C(=O)N3CC[C@]4(Cc5ccccc5CN4)[C@H](O)C3)cn2cc1C1CC1 [Example 251, (6-cyclopropyl-7-methoxyimidazo[1,2-a]pyrimidin-2-yl)[(3R,3′R)-3′-hydroxy-1,4-dihydro-1′H,2H-spiro[isoquinoline-3,4′-piperidin]-1′-yl]methanone]	–	547	1850	–
O=C(c1cn2cccc(F)c2n1)N1CC[C@]2(Cc3ccccc3CN2)[C@H](O)C1 [Example 202, (8-fluoroimidazo[1,2-a]pyridin-2-yl)[(3R,3′R)-3′-hydroxy-1,4-dihydro-1′H,2H-spiro[isoquinoline-3,4′-piperidin]-1′-yl]methanone]	16200	26.3	795	–
O=C(c1cn2c(n1)C(C1CCOC1)CC(C(F)(F)F)C2)N1CC[C@]2(Cc3ccccc3CN2)[C@H](O)C1 (single isomer, unassigned) [Example 163, ((3R,3′R)-3′-hydroxy-1,4-dihydro-2H-spiro[isoquinoline-3,4′-piperidin]-1′-yl)((6S,8S or 6R,8R)-8-((S or R)-tetrahydrofuran-3-yl)-6-(trifluoromethyl)-5,6,7,8-tetrahydroimidazo[1,2-a]pyridin-2-yl)methanone]	36700	96.6	–	1590
Cc1ccnc2nc(C(=O)N3CC[C@]4(Cc5ccccc5CN4)[C@H](O)C3)nn12 [Example 193, [(3R,3′R)-3′-hydroxy-1,4-dihydro-1′H,2H-spiro[isoquinoline-3,4′-piperidin]-1′-yl](7-methyl[1,2,d]triazolo[1,5-a]pyrimidin-2-yl)methanone]	–	27000	9610	–
COCc1cc(C)cn2cc(C(=O)N3CC[C@]4(Cc5ccccc5CN4)[C@H](O)C3)nc12 [Example 113, ((3R,3′R)-3′-hydroxy-1,4-dihydro-2H-spiro[isoquinoline-3,4′-piperidin]-1′-yl)(8-(methoxymethyl)-6-methylimidazo[1,2-a]pyridin-2-yl)methanone]	339	0.682	17.2	–
O=C(c1cn2cc(Cl)cnc2n1)N1CC[C@]2(Cc3ccccc3CN2)[C@H](O)C1 [Example 3, (6-chloroimidazo[1,2-a]pyrimidin-2-yl)((3R,3′R)-3′-hydroxy-1,4-dihydro-2H-spiro[isoquinoline-3,4′-piperidin]-1′-yl)methanone]	918	1.45	14.5	–
Cc1ccn2cc(C(=O)N3CC[C@]4(Cc5ccccc5CN4)[C@H](O)C3)nc2n1 [Example 111, [(3R,3′R)-3′-hydroxy-1,4-dihydro-1′H,2H-spiro[isoquinoline-3,4′-piperidin]-1′-yl](7-methylimidazo[1,2-a]pyrimidin-2-yl)methanone]	35900	41.2	2710	–
O=C(c1ccn2c(Br)cnc2n1)N1CC[C@]2(Cc3ccccc3CN2)[C@H](O)C1 [Example 57, (3-bromoimidazo[1,2-a]pyrimidin-7-yl)[(3R,3′R)-3′-hydroxy-1,4-dihydro-1′H,2H-spiro[isoquinoline-3,4′-piperidin]-1′-yl]methanone]	55000	63.1	2190	–
CN1CCC(Oc2nc(Br)cn3cc(C(=O)N4CC[C@]5(Cc6ccccc6CN5)[C@H](O)C4)nc23)C1=O (single isomer, unassigned) [Example 95, (R or S)-3-((6-bromo-2-((3R,3′R)-3′-hydroxy-1,4-dihydro-2H-spiro[isoquinoline-3,4′-piperidine]-1′-carbonyl)imidazo[1,2-a]pyrazin-8-yl)oxy)-1-methylpyrrolidin-2-one]	468	1.01	–	28.7
N#CC1(COc2nc(Br)cn3cc(C(=O)N4CC[C@]5(Cc6ccccc6CN5)[C@H](O)C4)nc23)CC1 [Example 21, 1-(((6-bromo-2-((3R,3’R)-3′-hydroxy-1,4-dihydro-2H-spiro[isoquinoline-3,4′-piperidine]-l′-carbonyl)imidazo[1,2-a]pyrazin-8-yl)oxy)methyl)cyclopropane-1-carbonitrile]	–	0.191	2.13	–
CO[C@H](C)c1cc(N2CCn3nccc32)cn2cc(C(=O)N3CC[C@]4(Cc5ccccc5CN4)[C@H](O)C3)nc12 [Example 232, {6-(2,3-dihydro-1H-imidazo[1,2-b]pyrazol-1-yl)-8-[(1R)-1-methoxyethyl]imidazo[1,2-a]pyridin-2-yl}[(3R,3′R)-3′-hydroxy-1,4-dihydro-1′H,2H-spiro[isoquinoline-3,4′-piperidin]-1′-yl]methanone]	–	5	67.3	–
O=C(c1cn2cc(F)ccc2n1)N1CC[C@]2(Cc3ccccc3CN2)[C@H](O)C1 [Example 38, (6-fluoroimidazo[1,2-a]pyridin-2-yl)((3R,3’R)-3′-hydroxy-1,4-dihydro-2H-spiro[isoquinoline-3,4′-piperidin]-1′-yl)methanone]	2460	3.84	16.2	–
O=C(c1cn2cc(C3CC3)ncc2n1)N1CC[C@]2(Cc3ccccc3CN2)[C@H](O)C1 [Example 134, (6-cyclopropylimidazo[1,2-a]pyrazin-2-yl)[(3R,3′R)-3′-hydroxy-1,4-dihydro-1′H,2H-spiro[isoquinoline-3,4′-piperidin]-1′-yl]methanone]	–	143	184	–
O=C(c1ccnc(-n2cnnn2)c1)N1CC[C@]2(Cc3ccccc3CN2)[C@H](O)C1 [Example 187, (2-(1H-tetrazol-1-yl)pyridin-4-yl)((3R,3′R)-3′-hydroxy-1,4-dihydro-2H-spiro[isoquinoline-3,4′-piperidin]-1′-yl)methanone]	26900	75.9	4280	–
CO[C@H](C)c1cc(-c2cccnc2C)cn2cc(C(=O)N3CC[C@]4(Cc5ccccc5CN4)[C@H](O)C3)nc12 [Example 239, [(3R,3′R)-3′-hydroxy-1,4-dihydro-1′H,2H-spiro[isoquinoline-3,4′-piperidin]-1′-yl]{8-[(1R)-1-methoxyethyl]-6-(2-methyl-3-pyridinyl)imidazo[1 2-a]pyridin-2-yl}methanone]	–	0.613	3.33	–
O=C(c1cnc2ncc(Br)cn12)N1CC[C@]2(Cc3ccccc3CN2)[C@H](O)C1 [Example 25, (6-bromoimidazo[1,2-a]pyrimidin-3-yl)((3R,3’R)-3′-hydroxy-1,4-dihydro-1′H,2H-spiro[isoquinoline-3,4′-piperidin]-1′-yl)methanone]	2040	7.12	30.2	–
CC(n1ccc(C(=O)N2CC[C@]3(Cc4ccccc4CN3)[C@H](O)C2)cc1=O)C(F)(F)F (single isomer, unassigned) [Example 102, 4-((3R,3′R)-3′-hydroxy-2,4-dihydro-1H-spiro[isoquinoline-3,4′-piperidin]-1′-ylcarbonyl)-1-((S or R)-1,1,1-trifluoropropan-2-yl)pyridin-2(1H)-one]	34700	52.1	–	800
Cc1cc(C)n2nc(C(=O)N3CC[C@]4(Cc5ccccc5CN4)[C@H](O)C3)nc2n1 [Example 178, (5,7-dimethyl-[1,2,4]triazolo[1,5-a]pyrimidin-2-yl)((3R,3′R)-3′-hydroxy-1,4-dihydro-2H-spiro[isoquinoline-3,4′-piperidin]-1′-yl)methanone]	85100	129	3210	–
N#CCCC1CC(C(F)(F)F)Cn2cc(C(=O)N3CC[C@]4(Cc5ccccc5CN4)[C@H](O)C3)nc21 (single isomer, unassigned) [Example 164, 3-((6R,8S or 6S,8R)-2-((3R,3′R)-3′-hydroxy-1,4-dihydro-2H-spiro[isoquinoline-3,4′-piperidine]-1′-carbonyl)-6-(trifluoromethyl)-5,6,7,8-tetrahydroimidazo[1,2-a]pyridin-8-yl)propanenitrile]	4620	4.83	–	205
O=C(c1cc2ncc(Br)cn2n1)N1CC[C@]2(Cc3ccccc3CN2)[C@H](O)C1 [Example 17, (6-bromopyrazolo[1,5-a]pyrimidin-2-yl)((3R,3’R)-3′-hydroxy-1,4-dihydro-1′H,2H-spiro[isoquinoline-3,4′-piperidin]-1′-yl)methanone]	794	1.51	14.1	–
O=C1Nc2cc(C(=O)N3CC[C@]4(Cc5ccccc5CN4)[C@H](O)C3)ccc2OC1C1CC1 (single isomer, unassigned) [Example 107, (2S or 2R)-2-cyclopropyl-6-((3R,3′R)-3′-hydroxy-1,4-dihydro-2H-spiro[isoquinoline-3,4′-piperidine]-1′-carbonyl)-2H-benzo[b][1,4]oxazin-3(4H)-one]	–	0.272	–	6.67
